Each structure is given as a SMILES string.

Data on four compounds can be found in patent publication US20220241208A1, “PHARMACEUTICAL COMPOSITIONS FOR THE TREATMENT OF HBV” (priority 2019, published 2022).

The nature of data set [1]: SGF/FaSSIF two-stage gastric transfer non-sink dissolution test. The class given is physicochemical. The following applies: dosed dry (SDD dry powder or API), 30 min SGF, then FaSSIF pH 6.8. The method, then:
In-vitro drug dissolution performance for each SDD prepared in Example 1 and described in Table 1 (i.e., Formulations 1-4) was evaluated by a two-stage gastric transfer non-sink dissolution test, which stimulates pH and bile salt concentrations for both gastric and intestinal exposure. A drug product sample start in 0.1N HCl(aq) (simulated gastric fluid or SGF) for 30 minutes at which point an equal volume of concentrated fasted-state simulated intestinal fluid (FaSSIF) is added to the SGF, resulting in a final pH of 6.8 in FaSSIF (100 mM PBS, 2.24 mg/mL SIF, Biorelevant Inc.).
The dissolution performance of the SDDs of Formulations 1-4 and crystalline Compound 1 was tested. The dissolution test is used to measure the supersaturation of drug above the bulk crystalline Compound 1 solubility in biorelevant intestinal media (FaSSIF) after 30 minutes exposure to a low-pH environment (SGF). During the test, samples were transferred from SGF [theoretical Cmax=1000 μA/mL] to FaSSIF SGF [theoretical Cmax=500 μA/mL].
The dissolution performance of the jet-milled material and crystalline Compound 1 was tested in a non-sink dissolution test, to measure the supersaturation of the drug above the bulk crystalline Compound 1 solubility in biorelevant intestinal media (FaSSIF) after 30 minutes exposure to a low-pH environment (SGF). During the test, samples were transferred from SGF to FaSSIF SGF. […]

The test system of data set [2] is HBV. The data set is described as follows: Study 202: Compound 1+ETV vs placebo+ETV in treatment-naive HBeAg positive viremic chronic hepatitis B subjects. The settings on record: Tx naïve HBeAg+ subjects. The class given is in vivo, human. The protocol: In this study (also referred to as study 202), 25 treatment-naive HBeAg positive […] subjects are randomized 1:1 (Group 1: […] FIG. 1 depicts a flow chart of the study. […] Subjects (Group 2) with chronic HBV who are currently not being treated receive matching placebo along with SOC NUC (entecavir [ETV]) tablets orally for 24 weeks. Subjects receive SOC NUC (0.5 mg QD of ETV) orally as per approved package insert and matching QD placebo tablets orally. […] Subjects return to the clinic at weeks (wk) 2 and 4 and then monthly up to wk 24. Clinical labs, safety and PK are monitored, as well as HBV biomarkers including HBV DNA, HBV RNA, HBsAg and HBeAg. At weeks 12 and 24, longitudinal serum samples are assayed for detectable virus. Compound 1 is abbreviated as C1 in the tables and figures.

Data set [3] deals with HBV. The data set is described as follows: Study 211: open-label extension study of Compound 1 + Nrtl combination therapy. On the set-up: species or system human. The settings on record: in vivo. From the text:
Compound 1 was investigated in an open-label, extension study (Study 211) to evaluate the safety and efficacy of combination therapy and Compound 1's effect on sustained viral response biomarkers. […] Study 211 utilized the four assays described in Studies 201 and 202.
Participants with chronic HBV who were currently not being treated received Compound 1 along with SOC NUC (entecavir [ETV]) tablets orally for 24 weeks. Eligible participants entered a separate extension study after Week 24 to continue open-label Compound 1 for up to an additional year.

Where [4] appears, read: listed as Crystalline Compound 1.

On to `O=C(NCc1cnc(C(F)(F)F)s1)c1ccc2c(c1)NC(=O)c1ccccc1S2(=O)=O` [Compound 1-Jet Mill, 11-oxo-N-((2-(trifluoromethyl)thiazol-5-yl)methyl)-10,11-dihydrodibenzo[b,f][1,4]thiazepine-8-carboxamide 5,5-dioxide], for which, in data set [1], the “AUC35-210FaSSIF (area under the curve after transfer to FaSSIF from 35 to 210 minutes)” value (“AUC35-210FaSSIF” for short) worked out at 5400 min * μgA/mL, the “C210 (drug concentration at 180 minutes after transfer to FaSSIF)” value is listed as 29.6 μgA/mL and the “Cmax FaSSIF (maximum drug concentration after transfer to FaSSIF)” value (from here on “Cmax FaSSIF”) is listed as 38.0 μgA/mL.

`O=C(NCc1cnc(C(F)(F)F)s1)c1ccc2c(c1)NC(=O)c1ccccc1S2(=O)=O` [Formulation 5, 11-oxo-N-((2-(trifluoromethyl)thiazol-5-yl)methyl)-10,11-dihydrodibenzo[b,f][1,4]thiazepine-8-carboxamide 5,5-dioxide]: in data set [1], the “AUC35-210FaSSIF” value came to 5300 min * μgA/mL, the “C210 (drug concentration at 180 minutes after transfer to FaSSIF)” value is recorded as 27.6 μgA/mL and the “Cmax FaSSIF” value is 33.4 μgA/mL. For the same compound, in data set [1] (setting [4]), the “AUC35-210FaSSIF” value is given as 5300 min * μgA/mL and the “Cmax FaSSIF” value was 33.4 μgA/mL.

Take `C=C1[C@H](CO)[C@@H](O)C[C@@H]1n1cnc2c(=O)[nH]c(N)nc21` [ETV, entecavir]: in data set [2] (Week 12), the “HBV DNA mean log10 decline” value turned out to be 3.29 log10 IU/mL and the “HBV RNA mean log10 decline” value is on record as 0.44 log10 copies/mL. In data set [2] (Week 24), the “HBV DNA mean log10 decline” value is given as 3.99 log10 IU/mL and the “HBV RNA mean log10 decline” value is on record as 0.61 log10 copies/mL.

For `O=C(NCc1cnc(C(F)(F)F)s1)c1ccc2c(c1)NC(=O)c1ccccc1S2(=O)=O` [Compound 1, 11-oxo-N-((2-(trifluoromethyl)thiazol-5-yl)methyl)-10,11-dihydrodibenzo[b,f][1,4]thiazepine-8-carboxamide 5,5-dioxide], the “effect on pgRNA levels” value in data set [3] is given as “multi-log reduction in pgRNA levels”.
